Measurements from PubChem BioAssay (NCI).
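Results reflect a 48-hour exposure of cells in 96-well plates to compound at five concentrations. TGI: total growth inhibition.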 Activity calls are given as the source filed them. No stated cut-off is given here; in the data, active means GI50 below about 0.43 µM; inactive means the rest.

Experiments:
Test in all cases: NCI tumour cell line growth inhibition, 48 h
[1] = system: UACC-257 melanoma
[2] = system: K-562 leukemia
[3] = system: EKVX NSCLC
[4] = system: SNB-19 CNS
[5] = system: HL-60(TB) leukemia
[6] = system: SK-MEL-2 melanoma
[7] = system: TK-10 renal
[8] = system: HCT-116 colon
[9] = system: SR leukemia
[10] = system: SNB-75 CNS
[11] = system: UO-31 renal
[12] = system: HOP-92 NSCLC
[13] = system: CAKI-1 renal
[14] = system: SF-295 CNS
[15] = system: NCI-H522 lung
[16] = system: KM12 colon
[17] = system: HOP-62 NSCLC
[18] = system: LOX IMVI melanoma
[19] = system: RPMI-8226 leukemia
[20] = system: IGROV1 ovarian
[21] = system: OVCAR-3 ovarian
[22] = system: HT29 colon
[23] = system: HCC-2998 colon
[24] = system: NCI/ADR-RES ovarian
[25] = system: UACC-62 melanoma
[26] = system: A549 NSCLC
[27] = system: M14 melanoma
[28] = system: MCF7 breast
[29] = system: 786-0 renal
[30] = system: MDA-N
[31] = system: HS 578T breast
[32] = system: NCI-H460 lung
[33] = system: MALME-3M melanoma
[34] = system: SN12C renal
[35] = system: OVCAR-5 ovarian
[36] = system: OVCAR-4 ovarian
[37] = system: SW-620 colon
[38] = system: MOLT-4 leukemia
[39] = system: MDA-MB-435
[40] = system: NCI-H226 lung
[41] = system: ACHN renal
[42] = system: A498 renal
[43] = system: DU-145 prostate
[44] = system: SK-MEL-28 melanoma
[45] = system: CCRF-CEM leukemia
[46] = system: SK-OV-3 ovarian
[47] = system: MDA-MB-231 breast
[48] = system: HCT-15 colon
[49] = system: OVCAR-8 ovarian
[50] = system: BT-549 breast
[51] = system: T-47D breast
[52] = system: SK-MEL-5 melanoma
[53] = system: PC-3 prostate
[54] = system: SF-539 CNS
[55] = system: U251 CNS
[56] = system: COLO 205 colon
[57] = system: SF-268 CNS
[58] = system: NCI-H23 lung
[59] = system: RXF 393 renal

With `O=C(O)CCN1CCN(CCC(=O)O)CCN(CCC(=O)O)CC1` the TGI [1] was > 100 µM, the TGI [2] was > 100 µM and the TGI [3] was > 100 µM. For the same compound, the TGI [4] was > 100 µM, the TGI [5] was 89.3 µM and the TGI [6] was > 100 µM. For the same compound, the TGI [7] was > 100 µM, the TGI [8] was > 100 µM and the TGI [9] was > 100 µM. The TGI [10] was > 100 µM, the TGI [11] was > 100 µM and the TGI [12] was > 100 µM. The TGI [13] was > 100 µM, the TGI [14] was > 100 µM and the TGI [15] was > 100 µM. The TGI [16] was > 100 µM, the TGI [17] was > 100 µM and the TGI [18] was > 100 µM. For the same compound, the TGI [19] was > 100 µM, the TGI [20] was > 100 µM and the TGI [21] was > 100 µM. The TGI [22] was > 100 µM, the TGI [23] was > 100 µM and the TGI [24] was > 100 µM. For the same compound, the TGI [25] was > 100 µM, the TGI [26] was > 100 µM and the TGI [27] was > 100 µM. The TGI [28] was > 100 µM, the TGI [29] was > 100 µM and the TGI [30] was > 100 µM. For the same compound, the TGI [31] was > 100 µM, the TGI [32] was > 100 µM and the TGI [33] was > 100 µM. For the same compound, the TGI [34] was > 100 µM, the TGI [35] was > 100 µM and the TGI [36] was > 100 µM. The TGI [37] was > 100 µM, the TGI [38] was > 100 µM and the TGI [39] was > 100 µM. For the same compound, the TGI [40] was > 100 µM, the TGI [41] was > 100 µM and the TGI [42] was > 100 µM. The TGI [43] was > 100 µM, the TGI [44] was > 100 µM and the TGI [45] was > 100 µM. For the same compound, the TGI [46] was > 100 µM, the TGI [47] was > 100 µM and the TGI [48] was > 100 µM. The TGI [49] was > 100 µM, the TGI [50] was > 100 µM and the TGI [51] was > 100 µM. The TGI [52] was > 100 µM, the TGI [53] was > 100 µM and the TGI [54] was > 100 µM. For the same compound, the TGI [55] was > 100 µM and the TGI [56] was > 100 µM.
For `O=c1cc(-c2ccc(O)c(O)c2-c2c(O)cc(O)c3c(=O)cc(-c4ccc(O)c(O)c4)oc23)oc2cc(O)cc(O)c12`, the outcome [1] was “inactive”, the outcome [2] was “inactive” and the outcome [3] was “inactive”. The outcome [4] was “inactive”, the outcome [5] was “inactive” and the outcome [6] was “inactive”. For the same compound, the outcome [7] was “inactive”, the outcome [8] was “inactive” and the outcome [9] was “inactive”. The outcome [10] was “inactive”, the outcome [11] was “inactive” and the outcome [12] was “inactive”. For the same compound, the outcome [13] was “inactive”, the outcome [14] was “inactive” and the outcome [15] was “inactive”. For the same compound, the outcome [16] was “inactive”, the outcome [17] was “inactive” and the outcome [18] was “inactive”. For the same compound, the outcome [19] was “inactive”, the outcome [20] was “inactive” and the outcome [21] was “inactive”. The outcome [22] was “inactive”, the outcome [23] was “inactive” and the outcome [24] was “inactive”. The outcome [25] was “inactive”, the outcome [26] was “inactive” and the outcome [27] was “inactive”. The outcome [28] was “inactive”, the outcome [29] was “inactive” and the outcome [30] was “inactive”. For the same compound, the outcome [31] was “inactive”, the outcome [57] was “inactive” and the outcome [33] was “inactive”. The outcome [34] was “inactive”, the outcome [35] was “inactive” and the outcome [36] was “inactive”. For the same compound, the outcome [37] was “inactive”, the outcome [38] was “inactive” and the outcome [39] was “inactive”. For the same compound, the outcome [40] was “inactive”, the outcome [41] was “inactive” and the outcome [42] was “inactive”. For the same compound, the outcome [43] was “inactive”, the outcome [58] was “inactive” and the outcome [44] was “inactive”. For the same compound, the outcome [45] was “inactive”, the outcome [46] was “inactive” and the outcome [47] was “inactive”. The outcome [48] was “inactive”, the outcome [49] was “inactive” and the outcome [50] was “inactive”. For the same compound, the outcome [51] was “inactive”, the outcome [52] was “inactive” and the outcome [53] was “inactive”. For the same compound, the outcome [54] was “inactive”, the outcome [55] was “inactive” and the outcome [56] was “inactive”.
In the case of `CC(=O)OCC1OC(n2c3c(cc(C#N)c2=O)CCCCCC3)C(OC(C)=O)C(OC(C)=O)C1OC(C)=O` (stereo unspecified), the TGI [1] is reported as > 100 µM, the TGI [2] is reported as > 100 µM and the TGI [4] is reported as > 100 µM. For the same compound, the TGI [5] was > 100 µM, the TGI [6] was > 100 µM and the TGI [7] was > 100 µM. For the same compound, the TGI [8] was > 100 µM, the TGI [9] was > 100 µM and the TGI [10] was > 100 µM. For the same compound, the TGI [11] was > 100 µM, the TGI [12] was > 100 µM and the TGI [13] was > 100 µM. For the same compound, the TGI [14] was > 100 µM, the TGI [15] was > 100 µM and the TGI [16] was > 100 µM. The TGI [17] was > 100 µM, the TGI [18] was > 100 µM and the TGI [19] was > 100 µM. For the same compound, the TGI [20] was > 100 µM, the TGI [59] was > 100 µM and the TGI [21] was > 100 µM. For the same compound, the TGI [22] was > 100 µM, the TGI [23] was > 100 µM and the TGI [24] was > 100 µM. For the same compound, the TGI [25] was > 100 µM, the TGI [26] was > 100 µM and the TGI [27] was > 100 µM. The TGI [28] was > 100 µM, the TGI [29] was > 100 µM and the TGI [30] was > 100 µM. The TGI [31] was > 100 µM, the TGI [32] was > 100 µM and the TGI [57] was > 100 µM. The TGI [33] was > 100 µM, the TGI [34] was > 100 µM and the TGI [35] was > 100 µM. The TGI [36] was > 100 µM, the TGI [38] was > 100 µM and the TGI [39] was > 100 µM. For the same compound, the TGI [40] was > 100 µM, the TGI [41] was > 100 µM and the TGI [42] was > 100 µM. For the same compound, the TGI [43] was > 100 µM, the TGI [58] was > 100 µM and the TGI [44] was > 100 µM. The TGI [45] was > 100 µM, the TGI [47] was > 100 µM and the TGI [48] was > 100 µM. For the same compound, the TGI [49] was > 100 µM, the TGI [50] was > 100 µM and the TGI [51] was 90.3 µM. The TGI [52] was > 100 µM, the TGI [53] was > 100 µM and the TGI [54] was > 100 µM. For the same compound, the TGI [55] was > 100 µM and the TGI [56] was > 100 µM.
`COC(=O)c1cc2/c(=N/O)c3ccccc3sc2o1` was tested, and the TGI [1] was > 100 µM, the TGI [2] was > 100 µM and the TGI [3] was > 100 µM. For the same compound, the TGI [4] was > 100 µM, the TGI [5] was > 100 µM and the TGI [6] was > 100 µM. The TGI [7] was > 100 µM, the TGI [8] was > 100 µM and the TGI [9] was > 100 µM. For the same compound, the TGI [10] was > 100 µM, the TGI [12] was > 100 µM and the TGI [13] was > 100 µM. The TGI [14] was > 100 µM, the TGI [15] was > 100 µM and the TGI [16] was > 100 µM. The TGI [17] was > 100 µM, the TGI [18] was > 100 µM and the TGI [19] was > 100 µM. For the same compound, the TGI [20] was > 100 µM, the TGI [21] was > 100 µM and the TGI [22] was > 100 µM. The TGI [23] was > 100 µM, the TGI [24] was > 100 µM and the TGI [25] was > 100 µM. The TGI [26] was > 100 µM, the TGI [27] was > 100 µM and the TGI [28] was > 100 µM. The TGI [29] was > 100 µM, the TGI [30] was > 100 µM and the TGI [31] was > 100 µM. The TGI [32] was > 100 µM, the TGI [57] was > 100 µM and the TGI [33] was > 100 µM. For the same compound, the TGI [34] was > 100 µM, the TGI [35] was > 100 µM and the TGI [36] was > 100 µM. For the same compound, the TGI [37] was > 100 µM, the TGI [38] was > 100 µM and the TGI [39] was > 100 µM. The TGI [40] was > 100 µM, the TGI [41] was > 100 µM and the TGI [42] was > 100 µM. The TGI [43] was > 100 µM, the TGI [58] was > 100 µM and the TGI [44] was > 100 µM. For the same compound, the TGI [45] was > 100 µM, the TGI [46] was > 100 µM and the TGI [47] was > 100 µM. For the same compound, the TGI [48] was > 100 µM, the TGI [49] was > 100 µM and the TGI [50] was > 100 µM. The TGI [51] was > 100 µM, the TGI [52] was > 100 µM and the TGI [53] was > 100 µM. For the same compound, the TGI [54] was > 100 µM, the TGI [55] was > 100 µM and the TGI [56] was > 100 µM.
